Experimental data published in ChEMBL document CHEMBL4145590, “SAR Studies of N-[2-(1H-Tetrazol-5-yl)phenyl]benzamide Derivatives as Potent G Protein-Coupled Receptor-35 Agonists” (ACS Med Chem Lett, 2018).
Activity calls are given as the source filed them. No cut-off for these calls is given here.

Key:
[1] = target: T1, G-protein coupled receptor 35 (Homo sapiens, UniProt Q9HC97); assay: Agonist activity at GPR35 in human HT-29 cells by dynamic mass redistribution assay; type: functional, cell-based
T1 sequence (Q9HC97 whole entry): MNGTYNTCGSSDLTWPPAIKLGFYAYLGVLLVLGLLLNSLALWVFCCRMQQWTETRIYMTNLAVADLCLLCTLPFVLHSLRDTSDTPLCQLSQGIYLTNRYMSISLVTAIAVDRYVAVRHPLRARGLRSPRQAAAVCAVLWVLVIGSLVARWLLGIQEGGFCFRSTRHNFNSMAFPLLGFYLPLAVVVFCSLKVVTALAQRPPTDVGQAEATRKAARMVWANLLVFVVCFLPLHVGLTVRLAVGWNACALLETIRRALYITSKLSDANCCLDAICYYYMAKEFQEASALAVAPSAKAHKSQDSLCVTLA

[2] = target: T1, G-protein coupled receptor 35; assay: Desensitization of GPR35 in human HT-29 cells assessed as inhibition of zaprinast-induced dynamic mass redistribution pretreated for 1 hr followed by zaprinast stimulation; type: functional, cell-based
[3] = target: T1, G-protein coupled receptor 35; assay: Agonist activity at GPR35 in human HT-29 cells in presence of GPR35 antagonist ML-145 by dynamic mass redistribution assay; type: functional, cell-based
[4] = target: T1, G-protein coupled receptor 35; assay: Agonist activity at GPR35 in human HT-29 cells assessed as increase in ERK1/2 phosphorylation at 0.1 to 1 uM after 15 mins by Western blot analysis; type: functional, cell-based
[5] = target: T1, G-protein coupled receptor 35; assay: Agonist activity at GPR35 in human HT-29 cells assessed as increase in ERK1/2 phosphorylation at 0.1 to 1 uM pretreated for 10 mins followed by GPR35 antagonist ML-145 addition measured after 5 mins by Western blot analysis; type: functional, cell-based
[6] = target: T1, G-protein coupled receptor 35; assay: Agonist activity at recombinant human N-terminal FLAG/eYFP-fused GPR35a expressed in CHOK1 cells assessed as induction of beta-arrestin recruitment by path hunter assay; type: cell-based
[7] = target: G protein-coupled receptor GPR35 (Rattus norvegicus, UniProt Q33BM1); assay: Agonist activity at recombinant rat N-terminal FLAG/eYFP-fused GPR35 expressed in HEK293 cells assessed as induction of beta-arrestin recruitment by BRET assay; type: functional, cell-based
Chain of G protein-coupled receptor GPR35 (Q33BM1 whole entry, the tested form may be a part): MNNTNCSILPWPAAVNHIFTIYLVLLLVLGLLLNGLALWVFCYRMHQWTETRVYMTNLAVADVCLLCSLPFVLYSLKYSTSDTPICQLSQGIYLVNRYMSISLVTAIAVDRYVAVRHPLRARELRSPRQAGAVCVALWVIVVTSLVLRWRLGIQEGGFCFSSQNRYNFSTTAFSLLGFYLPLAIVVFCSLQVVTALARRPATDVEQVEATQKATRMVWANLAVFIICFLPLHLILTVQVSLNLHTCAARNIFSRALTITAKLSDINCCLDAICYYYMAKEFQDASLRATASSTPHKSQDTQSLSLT

| Structure (SMILES) | Activity [1] | EC50 ([1]; read-out: EC50) [µM] | IC50 [2] [µM] | Activity [3] | EC50 ([1]; ht-29) | Activity [4] | Activity [5] | EC50 [6] [µM] | EC50 [7] [µM] |
| --- | --- | --- | --- | --- | --- | --- | --- | --- | --- |
| O=C(Nc1cc(Br)ccc1-c1nnn[nH]1)c1cccc(Cl)c1 | Dose-dependent effect | 2.18 | 0.48 | inactive | – | – | – | – | – |
| O=C(Nc1cc(Br)ccc1-c1nnn[nH]1)c1ccc(Cl)cc1 | Dose-dependent effect | 0.52 | 0.21 | inactive | – | – | – | – | – |
| O=C(Nc1cc(Br)ccc1-c1nnn[nH]1)c1ccccc1 | Dose-dependent effect | 0.87 | 0.3 | inactive | – | – | – | – | – |
| O=C(Nc1cc(Br)ccc1-c1nnn[nH]1)c1cccs1 | Dose-dependent effect | 0.51 | 0.26 | inactive | – | – | – | – | – |
| Cc1cccc(C(=O)Nc2cc(Br)ccc2-c2nnn[nH]2)c1 | Dose-dependent effect | 0.86 | 0.36 | inactive | – | – | – | – | – |
| O=C(Nc1cc(Br)ccc1-c1nnn[nH]1)c1ccc(Cl)cc1Cl | Dose-dependent effect | 0.31 | 0.11 | inactive | – | – | – | – | – |
| Cc1ccc(C(=O)Nc2cc(Br)ccc2-c2nnn[nH]2)cc1 | Dose-dependent effect | 1.33 | 0.51 | inactive | – | – | – | – | – |
| COc1ccc(C(=O)Nc2ccc(Br)cc2-c2nnn[nH]2)cc1 | Dose-dependent effect | 0.3 | 0.11 | inactive | – | – | – | – | – |
| O=C(Nc1cc(Br)ccc1-c1nnn[nH]1)c1ccc(C(F)(F)F)cc1 | Dose-dependent effect | 3.65 | 1.36 | inactive | – | – | – | – | – |
| O=C(Nc1cc(Br)ccc1-c1nnn[nH]1)c1cccc(F)c1 | Dose-dependent effect | 0.61 | 0.21 | inactive | – | – | – | – | – |
| O=C(Nc1cc(Br)ccc1-c1nnn[nH]1)C1CCCCC1 | Dose-dependent effect | 0.44 | 0.2 | inactive | – | – | – | – | – |
| COc1ccc(C(=O)Nc2ccccc2C#N)cc1 | – | – | – | inactive | Not Active | – | – | – | – |
| CC(C)C(=O)Nc1cc(Br)ccc1-c1nnn[nH]1 | Dose-dependent effect | 0.38 | 0.28 | inactive | – | – | – | – | – |
| O=C(Nc1cc(Br)ccc1-c1nnn[nH]1)c1ccccc1Cl | Dose-dependent effect | 0.87 | 0.41 | inactive | – | – | – | – | – |
| O=C(Nc1cc(Br)ccc1-c1nnn[nH]1)c1cccc(C(F)(F)F)c1 | Dose-dependent effect | 4.6 | 1.28 | inactive | – | – | – | – | – |
| COc1ccc(C(=O)Nc2cc(Br)ccc2-c2nnn[nH]2)cc1 | Dose-dependent effect | 0.059 | 0.026 | inactive | – | Active | inactive | – | – |

| Structure (SMILES) | Activity [1] | EC50 ([1]; read-out: EC50) [µM] | IC50 [2] [µM] | Activity [3] | EC50 ([1]; ht-29) | Activity [4] | Activity [5] | EC50 [6] [µM] | EC50 [7] [µM] |
| --- | --- | --- | --- | --- | --- | --- | --- | --- | --- |
| COc1ccc(C(=O)Nc2cc(Br)ccc2-c2nnn[nH]2)c(F)c1 | Dose-dependent effect | 0.041 | 0.014 | inactive | – | – | – | – | – |
| Nc1ccc(Br)cc1-c1nnn[nH]1 | Dose-dependent effect | 44.1 | 75.3 | inactive | – | – | – | – | – |
| O=C(Nc1cc(Br)ccc1-c1nnn[nH]1)c1ccco1 | Dose-dependent effect | 1.06 | 0.44 | inactive | – | – | – | – | – |
| O=C(Nc1cc(Br)ccc1-c1nnn[nH]1)c1ccc(F)cc1F | Dose-dependent effect | 0.13 | 0.06 | inactive | – | Active | inactive | – | – |
| CCC(=O)Nc1cc(Br)ccc1-c1nnn[nH]1 | Dose-dependent effect | 0.62 | 0.7 | inactive | – | – | – | – | – |
| O=C1c2ccccc2S(=O)(=O)c2cc(-c3nnn[nH]3)ccc21 [DOXANTRAZOLE] | – | – | – | – | – | – | – | 3.4 | – |
| O=C(Nc1cc(Br)ccc1-c1nnn[nH]1)c1ccccc1F | Dose-dependent effect | 0.35 | 0.17 | inactive | – | – | – | – | – |
| COc1ccc(C(=O)Nc2cc(Br)ccc2-c2nnn[nH]2)cc1OC | Dose-dependent effect | 0.83 | 0.26 | inactive | – | – | – | – | – |
| COc1ccc(C(=O)Nc2cc(F)ccc2-c2nnn[nH]2)cc1 | Dose-dependent effect | 0.2 | 0.082 | inactive | – | – | – | – | – |
| COc1ccc(C(=O)Nc2ccc(-c3nnn[nH]3)cc2)cc1 | Dose-dependent effect | 17.6 | 8.36 | inactive | – | – | – | – | – |
| O=C(Nc1cc(Br)ccc1-c1nnn[nH]1)c1ccc(F)cc1 | Dose-dependent effect | 0.45 | 0.16 | inactive | – | – | – | – | – |
| COc1ccccc1C(=O)Nc1cc(Br)ccc1-c1nnn[nH]1 | Dose-dependent effect | 0.86 | 0.4 | inactive | – | – | – | – | – |
| COc1cccc(C(=O)Nc2cc(Br)ccc2-c2nnn[nH]2)c1 | Dose-dependent effect | 1.94 | 0.81 | inactive | – | – | – | – | – |
| Cc1ccccc1C(=O)Nc1cc(Br)ccc1-c1nnn[nH]1 | Dose-dependent effect | 2.05 | 0.81 | inactive | – | – | – | – | – |
| COc1ccc(C(=O)Nc2ccccc2-c2nn[nH]n2)cc1 | Dose-dependent effect | 0.65 | 0.28 | inactive | – | – | – | – | – |
| Cc1cccn2c(=O)c(-c3nnn[nH]3)cnc12 [PEMIROLAST] | – | – | – | – | – | – | – | – | 0.095 |
